Data on seven molecules can be found in patent US7531507B2, “Acylated nonadepsipeptides containing pyridyl alanine residues” (AiCuris GmbH & Co. KG, priority 2004, dated 2009).

In brackets after ≈: the same amount, converted by molar mass. Structures can show the parent of a compound that is named as a salt. Where two headings read alike, the source gives them in different places. Starred links: 1 amine or outer side, 2 acyl side, 3 side chain; linkers in the order of their positions; H or OH if unused. Positions of bridges follow the written chain, without caps; N, C: chain ends. Non-standard residues stand in square brackets, D forms with d. Residues, ends and D or L forms follow the SMILES beside them. *: point of attachment. X3 = CCC(C)(C)C[C@@H](N)C(=O)N[C@@H](Cc1cccnc1)C(=O)N[C@H](C(N)=O)[C@H](O*)c1ccccc1; X2 = CC(C)(C)C[C@@H](N)C(=O)N[C@@H](Cc1cccnc1)C(=O)N[C@H](C(N)=O)[C@H](O*)c1ccccc1; Phe(3R-OH) = O=C([C@@H](N[*:1])[C@H](O[*:3])c1ccccc1)[*:2]; Asn(3S-OH) = NC(=O)[C@@H](O)[C@H](N)C(=O)O; Leu(3R-OH) = CC(C)[C@@H](O)[C@H](N)C(=O)O; dAla(TMS) = C[Si](C)(C)C[C@@H](N)C(=O)O; X1 = CC(C)[C@@H](O)[C@H](C)C(=O)*; 3Pal = N[C@@H](Cc1cccnc1)C(=O)O; aThr = C[C@H](O)[C@H](N)C(=O)O

Series [1] concerns Staphylococcus aureus 133. In kind it is cell-based. The protocol:
(§1) Determination of the Minimum Inhibitory Concentration (MIC):
(§2) The MIC is determined in the liquid dilution test in accordance with the NCCLS guidelines. Overnight cultures of Staphylococcus aureus 133, Enterococcus faecalis 27159, E. faecium 4147 and Streptococcus pneumoniae G9a are incubated with the described test substances in a 1:2 dilution series. The MIC determination is carried out with a cell count of 10^5 microbes per ml in Isosensitest medium (Difco, Irvine/USA), with the exception of S. pneumoniae which is tested in BHI broth (Difco, Irvine/USA) with 10% bovine serum with a cell count of 10^6 microbes per ml. The cultures are incubated at 37° C. for 18-24 hours, S. pneumoniae in the presence of 10% CO2.
(§3) The MIC is defined as the lowest concentration of each substance at which visible bacterial growth no longer occurs. The MIC values are reported in μg/ml.

Series [2] has as its system Streptococcus pneumoniae G9a. In kind it is cell-based. As for the experimental part:
as §1, §2, §3

The test system of series [3] is E. faecalis ICB 27159. In kind it is cell-based, Enterococcus faecalis. As for the experimental part: as §1, §2, §3
A short description of series [4]: Determination of the free fraction (fu) in plasma via Transil or ultrafiltration. In kind it is in vitro ADME, rat. As for the experimental part: Principle of the Determination of the Free Fraction via Transil:
The method described herein for determining the free fraction (fu) of a test substance is divided into 2 parts:
a) Determination of the Transil®/buffer partitioning ratio (MAbuffer) by incubating the test substance in a Transil® buffer (pH 7.4) dispersion and subsequently determining the concentration in the dispersion and in the buffer supernatant.
b) Determination of the Transil®/plasma partitioning ratio (MAplasma) by incubating the test substance in a Transil® plasma dispersion and subsequently determining the concentration in the dispersion and in the plasma.
The quotient of the two partitioning ratios gives fu.
Where substances are highly protein-bound, the plasma is usually diluted with isotonic phosphate buffer (pH 7.4) and then suspended with Transil®. Determination of fu′ (free fraction in diluted plasma) in this diluted protein solution takes place in analogy to the determination of fu. The free fraction in undiluted plasma is calculated from fu′ and the dilution factor.
Concerning this method, compare also: Schuhmacher, Joachim; Kohlsdorfer, Christian; Buehner, Klaus; Brandenburger, Tim; Kruk, Renate, “High-throughput determination of the free fraction of drugs strongly bound to plasma proteins.” Journal of Pharmaceutical Sciences 2004, 93, 816-830.
Determination of the Membrane Affinity of a Test Substance After Partitioning Between Transil® and Buffer (MAbuffer):
All incubations are carried out in suitable glass vessels, e.g. glass vials, ground-joint test tubes. The total volume is usually 0.5-5 ml, and the Transil® volume is 10-100 μl. If the membrane affinities are expected to be high, the Transil® dispersion can be diluted up to 20 times with phosphate buffer of pH 7.4, e.g. Dulbecco's PBS. Phosphate buffer of pH 7.4 is introduced into the incubation vessels, and the Transil® is pipetted in after thorough mixing. The test substance is pipetted in at a concentration of, for example, 200 ng/ml, n=6. The proportion of organic solvents should be ≦2%. The mixtures are incubated at room temperature i.e. on a mini-shaker at an angle of about 45°, at about 400 rpm for 30 min. The 100% value is determined by taking at least one aliquot of, for example, 100 μl, and the remaining mixture is centrifuged at about 1800 g for about 10 min. […]
The plasma of the species to be investigated is filtered through a semipermeable membrane. The concentration of substance in the filtrate is measured, and the free fraction fU is calculated therefrom. […] The concentration of substance in the ultrafiltrate (Cu, unbound substance concentration) and in the plasma before centrifugation (C; total substance concentration) is measured. The free fraction is calculated by the formula fu (%)=Cu/C*100.

For series [5], the system named is E. faecium L4001. Format: cell-based, Enterococcus faecium.
Where [6] appears, read: Isosensitest medium, 10^5 microbes per ml, 37° C., 18-24 hours, trishydrochloride.
[7] abbreviates: Isosensitest medium, 10^5 microbes per ml, 37° C., 18-24 hours.

Consider `CC[C@H](C)[C@@H]1NC(=O)[C@@H](CCCNC(=N)N)NC(=O)[C@H](CC(C)C)NC(=O)[C@H]([C@H](O)C(C)C)NC(=O)[C@@H](NC(=O)[C@H](Cc2cccnc2)NC(=O)[C@H](N)C[Si](C)(C)C)[C@@H](c2ccccc2)OC(=O)[C@H](CO)NC(=O)[C@H]([C@H](O)C(N)=O)NC(=O)CNC(=O)[C@H]([C@H](C)O)NC1=O` [Example 6, (Trimethylsilyl)-D-alanyl-3-(pyridin-3-yl)-L-alanyl-de(1-D-leucyl-2-L-leucyl)lysobactin trishydrochloride] (H-[dAla(TMS)][3Pal][Phe(3R-OH)][Leu(3R-OH)]L[dR]I[aThr]G[Asn(3S-OH)]S; ester 3-C), for which the “MIC S. aureus 133” value in series [1] (setting [6]) is <0.063 µg/mL. The “MIC S. pneumoniae G9a” value in series [2] (BHI broth with 10% bovine serum, 10^6 microbes per ml, 37° C., 18-24 hours, 10% CO2, trishydrochloride) is <0.063 µg/mL. Besides, the “MIC E. faecalis ICB 27159” value in series [3] (setting [6]) turned out to be 1 µg/mL.

Turning to `CC[C@H](C)[C@@H]1NC(=O)[C@@H](CCCNC(=N)N)NC(=O)[C@H](CC(C)C)NC(=O)[C@H]([C@H](O)C(C)C)NC(=O)[C@@H](NC(=O)[C@H](Cc2cccnc2)NC(=O)[C@H](N)C[Si](C)(C)C)[C@@H](c2ccccc2)OC(=O)[C@H](CO)NC(=O)[C@H]([C@H](O)C(N)=O)NC(=O)CNC(=O)[C@H]([C@H](C)O)NC1=O` [Example 8, (Trimethylsilyl)-D-alanyl-3-(pyridin-3-yl)-L-alanyl-de(1-D-leucyl-2-L-leucyl)lysobactin tris-D-tartrate] (H-[dAla(TMS)][3Pal][Phe(3R-OH)][Leu(3R-OH)]L[dR]I[aThr]G[Asn(3S-OH)]S; ester 3-C), the “MIC S. aureus 133” value in series [1] (setting [7]) was found to be 0.25 µg/mL (≈ 0.186 µM). Besides, the “MIC E. faecalis ICB 27159” value in series [3] (setting [7]) turned out to be 2 µg/mL (≈ 1.49 µM).

Take `CC[C@H](C)[C@@H]1NC(=O)[C@@H](CCCNC(=N)N)NC(=O)[C@H](CC(C)C)NC(=O)[C@H]([C@H](O)C(C)C)NC(=O)[C@@H](NC(=O)[C@H](Cc2cccnc2)NC(=O)[C@H](N)C[Si](C)(C)C)[C@@H](c2ccccc2)OC(=O)[C@H](CO)NC(=O)[C@H]([C@H](O)C(N)=O)NC(=O)CNC(=O)[C@H]([C@H](C)O)NC1=O` [Example 7, (Trimethylsilyl)-D-alanyl-3-(pyridin-3-yl)-L-alanyl-de(1-D-leucyl-2-L-leucyl)lysobactin tris-L-lactate] (H-[dAla(TMS)][3Pal][Phe(3R-OH)][Leu(3R-OH)]L[dR]I[aThr]G[Asn(3S-OH)]S; ester 3-C): the “MIC S. aureus 133” value in series [1] (setting [7]) was found to be 0.063 µg/mL (≈ 0.047 µM). The “MIC E. faecalis ICB 27159” value in series [3] (setting [7]) stood at 1 µg/mL (≈ 0.745 µM).

For `CC[C@H](C)[C@@H]1NC(=O)[C@@H](CCCNC(=N)N)NC(=O)[C@H](CC(C)C)NC(=O)[C@H]([C@H](O)C(C)C)NC(=O)[C@@H](NC(=O)[C@H](Cc2cccnc2)NC(=O)[C@H](N)C[Si](C)(C)C)[C@@H](c2ccccc2)OC(=O)[C@H](CO)NC(=O)[C@H]([C@H](O)C(N)=O)NC(=O)CNC(=O)[C@H]([C@H](C)O)NC1=O` [Example 2, 3-(Trimethylsilyl)-D-alanyl-3-(pyridin-3-yl)-L-alanyl-de(1-D-leucyl-2-L-leucyl)-lysobactin tristrifluoroacetate] (H-[dAla(TMS)][3Pal][Phe(3R-OH)][Leu(3R-OH)]L[dR]I[aThr]G[Asn(3S-OH)]S; ester 3-C), the fraction unbound at 30 min in series [4] (free fraction in rat plasma, read-out: fu (rat)) came to 0.123. Also, the “MIC E. faecium L4001” value in series [5] (setting [7]) is 1 µg/mL (≈ 0.745 µM). Also, in series [1] (setting [7]), the “MIC S. aureus 133” value is 0.125 µg/mL (≈ 0.0932 µM). Besides, the “MIC S. pneumoniae G9a” value in series [2] (BHI broth with 10% bovine serum, 10^6 microbes per ml, 37° C., 18-24 hours, 10% CO2) stood at 0.125 µg/mL (≈ 0.0932 µM). In addition, the “MIC E. faecalis ICB 27159” value in series [3] (setting [7]) stood at 0.5 µg/mL (≈ 0.373 µM).

In the case of `CC[C@H](C)[C@@H]1NC(=O)[C@@H](CCCNC(=N)N)NC(=O)[C@H](CC(C)C)NC(=O)[C@H]([C@H](O)C(C)C)NC(=O)[C@@H](NC(=O)[C@H](Cc2cccnc2)NC(=O)[C@H](N)C[Si](C)(C)C)[C@@H](c2ccccc2)OC(=O)[C@H](CO)NC(=O)[C@H]([C@H](O)C(N)=O)NC(=O)CNC(=O)[C@H]([C@H](C)O)NC1=O` [Example 3, 3-(Trimethylsilyl)-D-alanyl-3-(pyridin-3-yl)-L-alanyl-de(1-D-leucyl-2-L-leucyl)-lysobactin trismethanesulphonate] (H-[dAla(TMS)][3Pal][Phe(3R-OH)][Leu(3R-OH)]L[dR]I[aThr]G[Asn(3S-OH)]S; ester 3-C), in series [1] (setting [7]), the “MIC S. aureus 133” value worked out at 0.5 µg/mL.

For `CC[C@H](C)[C@H](NC(=O)[C@@H](CCCNC(=N)N)NC(=O)[C@H](CC(C)C)NC(=O)[C@@H](C)[C@H](O)C(C)C)C(=O)N[C@H](C(=O)NCC(=O)N[C@H](C(=O)N[C@@H](CO)C(=O)O[C@H](c1ccccc1)[C@H](NC(=O)[C@H](Cc1cccnc1)NC(=O)[C@H](N)CC(C)(C)C)C(N)=O)[C@H](O)C(N)=O)[C@H](C)O.O=C(O)C(F)(F)F.O=C(O)C(F)(F)F.O=C(O)C(F)(F)F` [Example 5, 3-tert-Butyl-D-alanyl-3-(pyridin-3-yl)-L-alanyl-de(1-D-leucyl-2-L-leucyl)lysobactin tristrifluoroacetate, reference compound] (X1-L[dR]I[aThr]G[Asn(3S-OH)]S-X2), the fraction unbound at 30 min in series [4] (rat, plasma) was found to be 0.086. The “MIC E. faecium L4001” value in series [5] (L4001) was found to be 1 µg/mL. In series [1] (133), the “MIC S. aureus 133” value stood at 0.5 µg/mL. Further, the “MIC S. pneumoniae G9a” value in series [2] (G9a) is 0.5 µg/mL. Besides, the “MIC E. faecalis ICB 27159” value in series [3] (ICB 27159) turned out to be 1 µg/mL.

`CC[C@H](C)[C@H](NC(=O)[C@@H](CCCNC(=N)N)NC(=O)[C@H](CC(C)C)NC(=O)[C@@H](C)[C@H](O)C(C)C)C(=O)N[C@H](C(=O)NCC(=O)N[C@H](C(=O)N[C@@H](CO)C(=O)O[C@H](c1ccccc1)[C@H](NC(=O)[C@H](Cc1cccnc1)NC(=O)[C@H](N)CC(C)(C)CC)C(N)=O)[C@H](O)C(N)=O)[C@H](C)O.O=C(O)C(F)(F)F.O=C(O)C(F)(F)F.O=C(O)C(F)(F)F` [Example 4, 4,4-Dimethyl-D-norleucyl-3-(pyridin-3-yl)-L-alanyl-de(1-D-leucyl-2-L-leucyl)lysobactin tristrifluoroacetate] (X1-L[dR]I[aThr]G[Asn(3S-OH)]S-X3) returned a fraction unbound at 30 min in series [4] (rat, plasma) of 0.061. The “MIC S. aureus 133” value in series [1] (133) was determined as 0.25 µg/mL. Further, in series [2] (G9a), the “MIC S. pneumoniae G9a” value was found to be 0.125 µg/mL. In addition, in series [3] (ICB 27159), the “MIC E. faecalis ICB 27159” value came to 1 µg/mL.
